Measured values from patent US9650395B2, “Antibacterial compounds and methods for use” (PTC Therapeutics, Inc., priority 2011, dated 2017).
Values after ≈ are worked out from the molar mass of the structure shown. Like-named read-outs stand apart in the source and are kept apart here.

Columns and labels:
[1] = system: quinolone resistant E. coli LZ3111; test: Antibacterial activity, MIC, quinolone resistant E. coli LZ3111; assay type: cell-based, Escherichia coli; settings: Escherichia coli, read-out: MIC, LZ3111
Source text: (§1) The antibacterial activity from a microbroth dilution method may be presented as the minimum inhibitory concentration (MIC in […]). The MIC value is the lowest concentration of a drug which prevents macroscopically visible bacterial growth under test conditions.
Mutations in these regions are known to confer a high level resistance to the quinolone class of antibiotics.

[2] = system: Klebsiella pneumoniae (K. pneumoniae) 35657; test: Antibacterial activity, MIC, K. pneumoniae 35657; assay type: cell-based; settings: Klebsiella pneumoniae
[3] = system: Gram-positive Staphylococcus aureus (S. aureus) 29213; test: Antibacterial activity, microbroth dilution MIC, S. aureus 29213; assay type: cell-based; settings: Staphylococcus aureus; S. aureus 29213, microbroth dilution; read-out: MIC, 29213
[4] = system: control Gram-negative E. coli 25922 strain; test: Antibacterial activity, microbroth dilution MIC, E. coli 25922; assay type: cell-based, Escherichia coli; settings: Escherichia coli; E. coli 25922, microbroth dilution; read-out: MIC, 25922
[5] = system: Pseudomonas aeruginosa (P. aeruginosa) 27853; test: Antibacterial activity, MIC, P. aeruginosa 27853; assay type: cell-based; settings: Pseudomonas aeruginosa, read-out: MIC 27853
Source text: as §1
Antibacterial activity of test compounds against the Gram-negative bacterium Pseudomonas aeruginosa (P. aeruginosa) 27853 is shown in Table 5.

[6] = system: super sensitive Gram-negative Escherichia coli (E. coli) BAS849; test: Antibacterial activity, microbroth dilution MIC, E. coli BAS849; assay type: cell-based; settings: Escherichia coli, read-out: MIC, BAS849
[7] = system: Acinetobacter baumannii (A. baumannii) BAA747; test: Antibacterial activity, MIC, A. baumannii BAA747; assay type: cell-based; settings: Acinetobacter baumannii
[8] = system: E. coli ELZ4000 (MDR clinical isolate); test: Antibacterial activity, MIC, MDR E. coli ELZ4000; assay type: cell-based, Escherichia coli; settings: Escherichia coli, read-out: MIC ELZ4000
[9] = system: E. coli ELZ4251 (MDR clinical isolate); test: Antibacterial activity, MIC, MDR E. coli ELZ4251; assay type: cell-based, Escherichia coli; settings: Escherichia coli, read-out: MIC ELZ4251
[10] = system: Haemophilus influenzae (H. influenzae) 49247; test: Antibacterial activity, MIC, H. influenzae 49247; assay type: cell-based; settings: Haemophilus influenzae, read-out: MIC 49247
How it was run: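 Antibacterial activity against the Gram-negative organism Haemophilus influenzae strain 49247 was measured by microbroth dilution. The minimum inhibitory concentration (MIC) was taken as the lowest drug concentration that stopped bacterial growth from being visible to the naked eye under the test conditions.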

[11] = system: Neisseria meningitidis (N. meningitidis) 13090; test: Antibacterial activity, MIC, N. meningitidis 13090; assay type: cell-based; settings: Neisseria meningitidis, read-out: MIC 13090
[12] = system: Moraxella catarrhalis (M. catarrhalis) 25238; test: Antibacterial activity, MIC, M. catarrhalis 25238; assay type: cell-based; settings: Moraxella catarrhalis, read-out: MIC 25238
[13] = E. coli BAS849, microbroth dilution
[14] = A. baumannii BAA747, read-out: MIC BAA747
[15] = E. coli ELZ4000, MDR clinical isolate
[16] = E. coli ELZ4251, MDR clinical isolate

Structure (SMILES)	MIC [1]	MIC [2]	MIC [3]	MIC [4]	MIC ([5]; P. aeruginosa 27853)	MIC [6, 13]	MIC [7, 14]	MIC [8, 15]	MIC [9, 16]	MIC ([10]; H. influenzae 49247)	MIC ([11]; N. meningitidis 13090)	MIC ([12]; M. catarrhalis 25238)	MIC [6]	MIC [8]	MIC [9]	MIC [5]	MIC [10]	MIC [11]	MIC [12]	MIC ([7]; BAA747, read-out: MIC BAA747)
CCc1cc(C(=O)O)c(=O)[nH]c1-c1ccc(N2Cc3cccnc3C2)cc1 [Cpd 192, 6-[4-(5,7-dihydro-6H-pyrrolo[3,4-b]pyridin-6-yl)phenyl]-5-ethyl-2-oxo-1,2-dihydropyridine-3-carboxylic acid]	12.5 to 150 µg/mL (≈ 34.6 to 415 µM)	12.5 to 150 µg/mL (≈ 34.6 to 415 µM)	3.5 to 12.5 µg/mL (≈ 9.68 to 34.6 µM)	3.5 to 12.5 µg/mL (≈ 9.68 to 34.6 µM)	12.5 to 150 µg/mL (≈ 34.6 to 415 µM)	< 1 µg/mL	12.5 to 150 µg/mL (≈ 34.6 to 415 µM)	–	–	–	–	–	–	–	–	–	–	–	–	–
CCc1cc(C(=O)O)c(=O)[nH]c1-c1ccc(N(CC)CC)cc1 [Cpd 97, 6-[4-(diethylamino)phenyl]-5-ethyl-2-oxo-1,2-dihydropyridine-3-carboxylic acid]	12.5 to 150 µg/mL (≈ 39.8 to 477 µM)	3.5 to 12.5 µg/mL (≈ 11.1 to 39.8 µM)	12.5 to 150 µg/mL (≈ 39.8 to 477 µM)	3.5 to 12.5 µg/mL (≈ 11.1 to 39.8 µM)	12.5 to 150 µg/mL (≈ 39.8 to 477 µM)	< 1 µg/mL	–	12.5 to 150 µg/mL (≈ 39.8 to 477 µM)	12.5 to 150 µg/mL (≈ 39.8 to 477 µM)	< 1 µg/mL	< 1 µg/mL	< 1 µg/mL	–	–	–	–	–	–	–	–
CCc1c(-c2ccc(N3CCCC3)cc2)[nH]c(=O)c(C(=O)O)c1O [Cpd 100, 5-ethyl-4-hydroxy-2-oxo-6-[4-(pyrrolidin-1-yl)phenyl]-1,2-dihydropyridine-3-carboxylic acid]	12.5 to 150 µg/mL (≈ 38.1 to 457 µM)	12.5 to 150 µg/mL (≈ 38.1 to 457 µM)	1 to 3.5 µg/mL (≈ 3.05 to 10.7 µM)	3.5 to 12.5 µg/mL (≈ 10.7 to 38.1 µM)	12.5 to 150 µg/mL (≈ 38.1 to 457 µM)	< 1 µg/mL	–	12.5 to 150 µg/mL (≈ 38.1 to 457 µM)	12.5 to 150 µg/mL (≈ 38.1 to 457 µM)	< 1 µg/mL	< 1 µg/mL	< 1 µg/mL	–	–	–	–	–	–	–	–
CCc1cc(C(=O)O)c(=O)[nH]c1-c1ccc(-n2cccc2)cc1 [Cpd 101, 5-ethyl-2-oxo-6-[4-(1H-pyrrol-1-yl)phenyl]-1,2-dihydropyridine-3-carboxylic acid]	12.5 to 150 µg/mL (≈ 40.5 to 486 µM)	3.5 to 12.5 µg/mL (≈ 11.4 to 40.5 µM)	12.5 to 150 µg/mL (≈ 40.5 to 486 µM)	12.5 to 150 µg/mL (≈ 40.5 to 486 µM)	12.5 to 150 µg/mL (≈ 40.5 to 486 µM)	< 1 µg/mL	–	12.5 to 150 µg/mL (≈ 40.5 to 486 µM)	12.5 to 150 µg/mL (≈ 40.5 to 486 µM)	< 1 µg/mL	< 1 µg/mL	< 1 µg/mL	–	–	–	–	–	–	–	–
CCc1cc(C(=O)O)c(=O)[nH]c1-c1ccc(N2CC3CCCCC3(C#N)C2)cc1 (centres unmarked) [Cpd 219, 6-[4-(3a-cyanooctahydro-2H-isoindol-2-yl)phenyl]-5-ethyl-2-oxo-1,2-dihydropyridine-3-carboxylic acid]	12.5 to 150 µg/mL (≈ 31.9 to 383 µM)	12.5 to 150 µg/mL (≈ 31.9 to 383 µM)	12.5 to 150 µg/mL (≈ 31.9 to 383 µM)	12.5 to 150 µg/mL (≈ 31.9 to 383 µM)	12.5 to 150 µg/mL (≈ 31.9 to 383 µM)	< 1 µg/mL	12.5 to 150 µg/mL (≈ 31.9 to 383 µM)	–	–	–	–	–	–	–	–	–	–	–	–	–
CCc1c(-c2ccc(N3CC[C@@H](O)C3)cc2F)[nH]c(=O)c(C(=O)O)c1O [Cpd 292, 5-ethyl-6-{2-fluoro-4-[(3R)-3-hydroxypyrrolidin-1-yl]phenyl}-4-hydroxy-2-oxo-1,2-dihydropyridine-3-carboxylic acid]	12.5 to 150 µg/mL (≈ 34.5 to 414 µM)	1 to 3.5 µg/mL (≈ 2.76 to 9.66 µM)	12.5 to 150 µg/mL (≈ 34.5 to 414 µM)	1 to 3.5 µg/mL (≈ 2.76 to 9.66 µM)	3.5 to 12.5 µg/mL (≈ 9.66 to 34.5 µM)	< 1 µg/mL	3.5 to 12.5 µg/mL (≈ 9.66 to 34.5 µM)	–	–	–	–	–	–	–	–	–	–	–	–	–
CCc1c(-c2ccc(N3CC[C@@H](F)C3)cc2F)[nH]c(=O)c(C(=O)O)c1O [Cpd 293, 5-ethyl-6-{2-fluoro-4-[(3R)-3-fluoropyrrolidin-1-yl]phenyl}-4-hydroxy-2-oxo-1,2-dihydropyridine-3-carboxylic acid]	12.5 to 150 µg/mL (≈ 34.3 to 412 µM)	12.5 to 150 µg/mL (≈ 34.3 to 412 µM)	3.5 to 12.5 µg/mL (≈ 9.61 to 34.3 µM)	3.5 to 12.5 µg/mL (≈ 9.61 to 34.3 µM)	12.5 to 150 µg/mL (≈ 34.3 to 412 µM)	< 1 µg/mL	12.5 to 150 µg/mL (≈ 34.3 to 412 µM)	–	–	–	–	–	–	–	–	–	–	–	–	–
Cc1cc(C(=O)O)c(=O)[nH]c1-c1ccc(N(C)C)cc1 [Cpd 4, 6-[4-(dimethylamino)phenyl]-5-methyl-2-oxo-1,2-dihydropyridine-3-carboxylic acid]	12.5 to 150 µg/mL (≈ 45.9 to 551 µM)	3.5 to 12.5 µg/mL (≈ 12.9 to 45.9 µM)	12.5 to 150 µg/mL (≈ 45.9 to 551 µM)	12.5 to 150 µg/mL (≈ 45.9 to 551 µM)	12.5 to 150 µg/mL (≈ 45.9 to 551 µM)	< 1 µg/mL	–	12.5 to 150 µg/mL (≈ 45.9 to 551 µM)	12.5 to 150 µg/mL (≈ 45.9 to 551 µM)	–	–	–	–	–	–	–	–	–	–	–
CCc1cc(C(=O)O)c(=O)[nH]c1-c1ccc(N2CCCC2)cc1 [Cpd 99, 5-ethyl-2-oxo-6-[4-(pyrrolidin-1-yl)phenyl]-1,2-dihydropyridine-3-carboxylic acid]	12.5 to 150 µg/mL (≈ 40 to 480 µM)	3.5 to 12.5 µg/mL (≈ 11.2 to 40 µM)	1 to 3.5 µg/mL (≈ 3.2 to 11.2 µM)	< 1 µg/mL	3.5 to 12.5 µg/mL (≈ 11.2 to 40 µM)	< 1 µg/mL	–	12.5 to 150 µg/mL (≈ 40 to 480 µM)	12.5 to 150 µg/mL (≈ 40 to 480 µM)	< 1 µg/mL	< 1 µg/mL	< 1 µg/mL	–	–	–	–	–	–	–	–
CCc1cc(C(=O)O)c(=O)[nH]c1-c1ccc(N2CCC(C3(NCc4ccccc4)CC3)C2)cc1.O=C(O)C(F)(F)F (centres unmarked) [Cpd 217, 6-(4-{3-[1-(benzylamino)cyclopropyl]pyrrolidin-1-yl}phenyl)-5-ethyl-2-oxo-1,2-dihydropyridine-3-carboxylic acid trifluoroacetate]	–	3.5 to 12.5 µg/mL	3.5 to 12.5 µg/mL	3.5 to 12.5 µg/mL	12.5 to 150 µg/mL	–	12.5 to 150 µg/mL	–	–	–	–	–	< 1 µg/mL	–	–	–	–	–	–	–
CCc1cc(C(=O)O)c(=O)[nH]c1-c1ccc(N2CCNCC2)c(F)c1.O=C(O)C(F)(F)F [Cpd 92, 5-ethyl-6-[3-fluoro-4-(piperazin-1-yl)phenyl]-2-oxo-1,2-dihydropyridine-3-carboxylic acid trifluoroacetate]	12.5 to 150 µg/mL	–	12.5 to 150 µg/mL	12.5 to 150 µg/mL	–	–	–	–	–	–	–	–	12.5 to 150 µg/mL	12.5 to 150 µg/mL	12.5 to 150 µg/mL	12.5 to 150 µg/mL	1 to 3.5 µg/mL	3.5 to 12.5 µg/mL	12.5 to 150 µg/mL	12.5 to 150 µg/mL
CC(C)c1cc(C(=O)O)c(=O)[nH]c1-c1ccc(N(C)C)cc1 [Cpd 95, 6-[4-(dimethylamino)phenyl]-2-oxo-5-(propan-2-yl)-1,2-dihydropyridine-3-carboxylic acid]	12.5 to 150 µg/mL (≈ 41.6 to 499 µM)	12.5 to 150 µg/mL (≈ 41.6 to 499 µM)	12.5 to 150 µg/mL (≈ 41.6 to 499 µM)	3.5 to 12.5 µg/mL (≈ 11.7 to 41.6 µM)	12.5 to 150 µg/mL (≈ 41.6 to 499 µM)	< 1 µg/mL	–	12.5 to 150 µg/mL (≈ 41.6 to 499 µM)	12.5 to 150 µg/mL (≈ 41.6 to 499 µM)	< 1 µg/mL	< 1 µg/mL	< 1 µg/mL	–	–	–	–	–	–	–	–
CCc1cc(C(=O)O)c(=O)[nH]c1-c1ccc(N2CCOCC2)c(F)c1 [Cpd 84, 5-ethyl-6-[3-fluoro-4-(morpholin-4-yl)phenyl]-2-oxo-1,2-dihydropyridine-3-carboxylic acid]	12.5 to 150 µg/mL (≈ 36.1 to 433 µM)	–	12.5 to 150 µg/mL (≈ 36.1 to 433 µM)	12.5 to 150 µg/mL (≈ 36.1 to 433 µM)	12.5 to 150 µg/mL (≈ 36.1 to 433 µM)	3.5 to 12.5 µg/mL (≈ 10.1 to 36.1 µM)	12.5 to 150 µg/mL (≈ 36.1 to 433 µM)	12.5 to 150 µg/mL (≈ 36.1 to 433 µM)	12.5 to 150 µg/mL (≈ 36.1 to 433 µM)	< 1 µg/mL	1 to 3.5 µg/mL (≈ 2.89 to 10.1 µM)	3.5 to 12.5 µg/mL (≈ 10.1 to 36.1 µM)	–	–	–	–	–	–	–	–
